Key:
pH 8.0 buffer stability = type: physicochemical; settings: 150 mM NaH2PO4 buffer pH 8.0, 60 min, 37° C.
Protocol: For the pH 8.0 stability studies, 190 μL of 150 mM NaH2PO4 buffer pH 8.0 was added to each sample tube. Ten (10) μL of 20 mM test compound was added to each tube and mixed. The samples were incubated for 60 min at 37° C. Following incubation, the samples were transferred to room temperature and 800 μL of 50% ACN in water was added to each tube. Samples were analyzed using LC/MS/MS to determine the concentrations of prodrug and parent drug.
(§1) LC-MS/MS analysis for MHF was performed using an API 4000 equipped with an Agilent 1100 HPLC and a Leap Technologies autosampler. A HPLC Phenomenex Onyx Monolithic C18 (CHO-7644) column at a temperature of 35° C., flow rate of 2.0 mL/min, injection volume of 30 μL, and a 3 min run time was used. Mobile phase AI was 0.1% formic acid in water and Mobile phase AII was 0.1% formic acid in acetonitrile. The gradient was 98% AI/2% AII at time 0; 98% AI/2% AII at time 0.1 mM; 5% AI/95% AII at time 1.4 mM; 5% AI/95% AII at time 2.2 min; 98% AI/2% AII at time 2.3 mM; and 98% AI/2% AII at time 3.0 min MHF content was determined using negative ion mode (Q1 128.94; Q2 71).

[1] = Enzymatic stability of prodrug in rat liver S9; type: in vitro ADME; settings: rat liver S9 0.5 mg/mL, pH 7.4, 1 mM NADPH, 37° C.; for half-life at 40 µM: read-out: T1/2 Parent Prodrug Cleavage (min) rLiver
Protocol: Rat liver S9 (XenoTech, Lenexa, Kans.; R1000.59, 20 mg/mL) was diluted to 0.5 mg mL in 0.1 M potassium phosphate buffer at pH 7.4 and 1 mM NADPH cofactor.
(§2) The enzymatic stability assays for prodrug in CaCo2 S9, rat liver S9, rat plasma, pig pancreatin, and rat colonic was were performed using the following procedure. Ninety (90) μL of lysate is aliquoted to designated tubes on a cluster plates. The lysate was preincubated for 10 min at 37° C. With the exception of the t(0) time point, 10 μL of a 400 μM solution of test compound in 0.1M Tris buffer, pH 7.4 was added to multiple wells representing different incubation times. The samples were incubated at 37° C. At each time point, the reaction was quenched by adding 300 μL of 100% ethanol. The samples were thoroughly mixed, the tubes transferred to a V-bottom plate, and stored at −20° C. For the t(0) time point, the lysate was quenched with 300 μL of ice cold 100% ethanol, thoroughly mixed, 10 μL of 400 μM test compound was added and mixed, and the sample tube transferred to a V-bottom plate and stored at −20° C. For analysis, 180 μL from each sample was transferred to a 96 well V-bottom plate and sealed. After all time points were collected, the plate was centrifuged for 10 min at 5600 rpm at 4° C. One-hundred fifty (150) μL from each well was then transferred to a 96 well round bottom plate. Samples were analyzed using LC/MS/MS to determine the concentrations of prodrug and parent drug.
as §1

[2] = Enzymatic stability of prodrug in rat colonic wash; type: in vitro ADME; settings: rat colonic wash undiluted, 37° C.; for half-life at 40 µM: pH 7.4, read-out: T1/2 Parent Prodrug Cleavage (min) rColonic Wash
Protocol: To prepare the rat colonic wash, the colon between the ceacum and rectum was resected from a euthanized rat. Five to 10 mL of PBS pH 7.4 buffer (depending on the weight of the rat) was flushed into the lumen of the large intestine and collected into a 250 mL glass beaker at 0° C. (ice bath). The colonic wash was transferred into 10 mL conical tubes using a 10 mL syringe fitted with a filter. Samples of 0.5 mL colonic wash are stored at −80° C. until the time of use. Colonic was used without dilution.
as §2, §1

[3] = Enzymatic stability of prodrug in CaCo2 S9 homogenate; type: in vitro ADME; settings: CaCo2 S9 0.5 mg/mL, 0.1M Tris pH 7.4, 37° C.; for half-life at 40 µM: human, Caco-2 cell S9 homogenate, read-out: T1/2 Parent Prodrug Cleavage (min) CaCo2
Protocol: CaCo2 S9 homogenate was prepared using the following procedure. CaCo2 cells were grown in culture for 21 days prior to harvesting. Culture medium was removed from the culture vessel and the monolayer was rinsed twice with 10-15 mL chilled PBS buffer. PBS buffer (7-10 mL) was added to the flask and the cells scraped from the growth surface and transferred to a centrifuge tube. The cells were pelleted by centrifugation at 1500 rpm for 5 min at 4° C. The supernatant was removed and the cell pellet washed with ice cooled PBS and repelleted by centrifugation. The supernatant was removed and the pellet resuspended in cell lysis buffer (0.15M KCl and 10 mM sodium phosphate buffer, pH 7.4). Cells were lysed by sonication at 4° C. using a probe sonicator. The lysed cells were then transferred to vials and centrifuged at 1600 rpm for 10 min at 4° C. to remove intact cells, nuclei, and large cellular debris. The supernatant was removed and transferred to a tube for centrifugation at 8600 rpm for 20 min at 4° C. After centrifugation, the resulting supernatant representing the CaCo2 cell homogenate S9 fraction was carefully removed and aliquoted into vials for storage at −80° C. until the time of use. At the time of use, CaCo2 S9 lysate was diluted to 0.5 mg/mL in 0.1M Tris buffer, pH 7.4.
as §2, §1

[4] = Enzymatic stability of prodrug in rat plasma; type: in vitro ADME; settings: 37° C.; for half-life at 40 µM: read-out: T1/2 Parent Prodrug Cleavage (min) rPlasma
Protocol: Rat plasma (Pel-Freez® Biologicals, Rogers, Ark.; 36150) was used as obtained from the supplier.
as §2, §1

[5] = Enzymatic stability of prodrug in porcine pancreatin; type: in vitro ADME; settings: porcine pancreatin 10 mg/mL, 0.1M Tris pH 7.4, 37° C.; for half-life at 40 µM: pig, read-out: T1/2 Parent Prodrug Cleavage (min) pPancreatin
Protocol: Porcine pancreatin (Sigma Aldrich, St. Louis, Mo.; P1625-100G) was diled to 10 mg/mL in 0.1M Tris buffer, pH 7.4.
as §2, §1

CCN(CC)C(=O)COC(=O)/C=C/C(=O)OC [Compound 1, (N,N-Diethylcarbamoyl)methyl methyl (2E)but-2-ene-1,4-dioate]
pH 8.0: Percent DMF or prodrug remaining after 60 minutes (pH 8.0 buffer stability): 63%
half-life at 40 µM [1]: 2 min
half-life at 40 µM [2]: > 60 min
half-life at 40 µM [3]: 8 min
half-life at 40 µM [4]: 1 min
half-life at 40 µM [5]: 8 min

COC(=O)/C=C/C(=O)OCC(=O)NCc1ccccc1 [Compound 2, Methyl [N-benzylcarbamoyl]methyl (2E)but-2-ene-1,4-dioate]
pH 8.0: Percent DMF or prodrug remaining after 60 minutes (pH 8.0 buffer stability): 17%
half-life at 40 µM [1]: 9 min
half-life at 40 µM [2]: 25 min
half-life at 40 µM [3]: 4 min
half-life at 40 µM [4]: 9 min
half-life at 40 µM [5]: 1 min

COC(=O)/C=C/C(=O)OCC(=O)N1CCOCC1 [Compound 3, Methyl 2-morpholin-4-yl-2-oxoethyl (2E)but-2-ene-1,4-dioate]
pH 8.0: Percent DMF or prodrug remaining after 60 minutes (pH 8.0 buffer stability): 53%
melting point: 124 to 126 °C
half-life at 40 µM [1]: 22 min
half-life at 40 µM [2]: > 60 min
half-life at 40 µM [3]: 56 min
half-life at 40 µM [4]: 1 min
half-life at 40 µM [5]: 8 min

CCCCNC(=O)COC(=O)/C=C/C(=O)OC [Compound 4, (N-Butylcarbamoyl)methyl methyl (2E)but-2-ene-1,4-dioate]
pH 8.0: Percent DMF or prodrug remaining after 60 minutes (pH 8.0 buffer stability): 40%
half-life at 40 µM [1]: 2 min
half-life at 40 µM [2]: 33 min
half-life at 40 µM [3]: 5 min
half-life at 40 µM [4]: 1 min
half-life at 40 µM [5]: 2 min

COCCNC(=O)COC(=O)/C=C/C(=O)OC [Compound 5, [N-(2-Methoxyethyl)carbamoyl]methyl methyl (2E)but-2-ene-1,4-dioate]
pH 8.0: Percent DMF or prodrug remaining after 60 minutes (pH 8.0 buffer stability): 53%
half-life at 40 µM [1]: 10 min
half-life at 40 µM [2]: > 60 min
half-life at 40 µM [3]: 30 min
half-life at 40 µM [4]: 2 min
half-life at 40 µM [5]: 3 min

COC(=O)/C=C/C(=O)OCC(=O)N(C)C [Compound 9]
pH 8.0: Percent DMF or prodrug remaining after 60 minutes (pH 8.0 buffer stability): 47%
half-life at 40 µM [1]: 6 min
half-life at 40 µM [2]: > 60 min
half-life at 40 µM [3]: 8 min
half-life at 40 µM [4]: 1 min
half-life at 40 µM [5]: 4 min

COC(=O)/C=C/C(=O)OCC(=O)N(C)OC [Compound 10, (N-Methoxy-N-methylcarbamoyl)methyl methyl (2E) but-2-ene-1,4-dioate]
pH 8.0: Percent DMF or prodrug remaining after 60 minutes (pH 8.0 buffer stability): 42%
half-life at 40 µM [1]: 1 min
half-life at 40 µM [2]: > 60 min
half-life at 40 µM [3]: 3 min
half-life at 40 µM [4]: 1 min
half-life at 40 µM [5]: 4 min

COCCN(CCOC)C(=O)COC(=O)/C=C/C(=O)OC [Compound 11]
melting point: 79 to 82 °C

COC(=O)/C=C/C(=O)OC(C)C(=O)N1CCOCC1 (stereo not shown) [Compound 28, Methyl 1-methyl-2-morpholin-4-yl-2-oxoethyl (2E)but-2-ene-1,4-dioate]
melting point: 70 to 73 °C

COC(=O)/C=C/C(=O)O[C@@H](C)C(=O)N1CCOCC1 [Compound 31, (1S)-1-Methyl-2-morpholin-4-yl-2-oxoethyl methyl (2E)but-2-ene-1,4-dioate]
melting point: 79 to 82 °C

Methyl(N-(1,3,4-thiadiazol-2-yl)carbamoyl)methyl(2E)but-2ene-1,4-dioate [Compound 8]
pH 8.0: Percent DMF or prodrug remaining after 60 minutes (pH 8.0 buffer stability): 141%
T1/2 Parent Prodrug Cleavage (min) rLiver [1]: 23 min
T1/2 Parent Prodrug Cleavage (min) rColonic Wash [2]: 27 min
T1/2 Parent Prodrug Cleavage (min) CaCo2 [3]: 52 min
T1/2 Parent Prodrug Cleavage (min) rPlasma [4]: 6 min
T1/2 Parent Prodrug Cleavage (min) pPancreatin [5]: 15 min

Reference: patent US8785443B2, “Methods of using prodrugs of methyl hydrogen fumarate and pharmaceutical compositions thereof” (XenoPort, Inc., priority 2008, dated 2014)
